“And” between values parts separate entries of the source, which are not always exact repeats. Identical values can stand only once. “Also recorded” adds a separate entry of the source.
Legend:
Nurr1 [1] = target: T1, Nurr1 (Homo sapiens, UniProt P43354); assay: Gal4-Nurr1 hybrid reporter gene assay in HEK293T cells; assay type: cell-based; set-up: expressed in transfected cells; host or cells: HEK293T; conditions: for EC50: Gal4-Nurr1 hybrid reporter gene assay; for EC50 / max. activation: mean±SD, n≥3; for EC50(Nurr1) (max. activation): result in words; for max. activation: maximum effect vs. 0.1% DMSO control
Protocol: Hybrid reporter gene assays. Nurr1 modulation was determined in a Gal4 hybrid reporter gene assay in HEK293T cells (German Collection of Microorganisms and Cell Culture GmbH, DSMZ) using pFR-Luc (Stratagene, La Jolla, CA, USA; reporter), pRL-SV40 (Promega, Madison, WI, USA; internal control) and pFA-CMV-hNurr1-LBD^14, coding for the hinge region and ligand binding domain of the canonical isoform of human Nurr1. […] After 24 h, medium was changed to Opti-MEM without supplements and cells were transiently transfected using Lipofectamine LTX reagent (Invitrogen, Carlsbad, CA, USA) according to the manufacturer's protocol. Five hours after transfection, cells were incubated with the test compounds in Opti-MEM supplemented with penicillin (100 U/mL), streptomycin (100 µg/mL) and 0.1% DMSO for 16 h before luciferase activity was measured using the Dual-Glo Luciferase Assay System (Promega) according to the manufacturer's protocol on a Tecan Spark luminometer (Tecan Deutschland GmbH, Crailsheim, Germany). Firefly luminescence was divided by Renilla luminescence and multiplied by 1000 resulting in relative light units (RLU) to normalize for transfection efficiency and cell growth. Fold activation was obtained by dividing the mean RLU of test compound by the mean RLU of the untreated control. All samples were tested in at least three biologically independent experiments in duplicates. For dose-response curve fitting and calculation of EC50 values, the equation "[Agonist] vs. response -- Variable slope (four parameters)" was used in GraphPad Prism (version 7.00, GraphPad Software, La Jolla, CA, USA). Selectivity profiling was performed with identical procedures using pFA-CMV-Nur77-LBD^14, pFA-CMV-NOR-1-LBD^14, pFA-CMV-THRα-LBD^39, pFA-CMV-RARα-LBD^40, pFA-CMV-PPARα-LBD^41, pFA-CMV-PPARγ-LBD^41, pFA-CMV-PPARδ-LBD^41, pFA-CMV-LXRα-LBD^37, pFA-CMV-FXR-LBD^42 and pFA-CMV-hRXRα-LBD^43.
Target sequence in this assay (P43354 360-595 limits assumed): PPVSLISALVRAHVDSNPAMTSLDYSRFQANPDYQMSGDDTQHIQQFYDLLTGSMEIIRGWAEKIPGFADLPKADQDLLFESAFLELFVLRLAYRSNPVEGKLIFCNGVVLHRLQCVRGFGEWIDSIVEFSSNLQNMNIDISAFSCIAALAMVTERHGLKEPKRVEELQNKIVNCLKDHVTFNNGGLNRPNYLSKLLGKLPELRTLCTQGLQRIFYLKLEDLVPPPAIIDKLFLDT

Nurr1 LBD = target: T2, Nurr1 LBD (Homo sapiens, UniProt P43354); assay: Isothermal titration calorimetry (ITC); assay type: binding; conditions: ITC at 25°C
T2 construct: Nurr1 LBD protein (10-30 µM, expressed as described previously^21); made in house
Protocol: Isothermal Titration Calorimetry (ITC). ITC experiments were conducted on an Affinity ITC instrument (TA Instruments, New Castle, DE) at 25°C with a stirring rate of 75 rpm. Nurr1 LBD protein (10-30 µM, expressed as described previously^21) in buffer (20 mM Tris pH 7.5, 100 mM NaCl, 5% glycerol) containing 1-4% DMSO was titrated with the test compounds (60-150 µM in the same buffer containing 1-4% DMSO) in 26 injections (1x 1 µL, 25x 3-4 µL) with an injection interval of 150 s. As control experiments, the test compounds were titrated to the buffer, and the buffer was titrated to the Nurr1 LBD protein under otherwise identical conditions. Results were analyzed using NanoAnalyze software (version 3.11.0, TA Instruments, New Castle, DE) with independent binding models.

Nurr1 [2] = target: T1, Nurr1; assay: Ligand efficiency metrics; conditions: computed according to ref. 29
Target sequence in this assay (P43354 whole entry, the tested form may be a part, canonical isoform): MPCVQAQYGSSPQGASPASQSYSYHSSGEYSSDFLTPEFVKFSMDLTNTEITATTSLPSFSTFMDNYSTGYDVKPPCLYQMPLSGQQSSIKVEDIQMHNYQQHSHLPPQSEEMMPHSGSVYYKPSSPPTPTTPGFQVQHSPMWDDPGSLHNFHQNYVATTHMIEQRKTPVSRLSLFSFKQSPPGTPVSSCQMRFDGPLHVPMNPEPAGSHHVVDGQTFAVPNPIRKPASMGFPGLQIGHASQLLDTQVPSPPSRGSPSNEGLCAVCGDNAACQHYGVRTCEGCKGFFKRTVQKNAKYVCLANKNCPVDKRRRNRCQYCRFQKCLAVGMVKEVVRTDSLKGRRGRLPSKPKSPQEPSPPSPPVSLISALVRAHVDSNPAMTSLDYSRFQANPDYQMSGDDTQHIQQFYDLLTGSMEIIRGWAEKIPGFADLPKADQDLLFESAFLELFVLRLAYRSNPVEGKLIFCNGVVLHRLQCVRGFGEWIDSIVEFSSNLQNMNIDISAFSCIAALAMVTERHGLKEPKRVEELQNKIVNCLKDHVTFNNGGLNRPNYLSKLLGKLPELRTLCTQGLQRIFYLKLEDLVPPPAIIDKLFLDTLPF

T2 sequence (P43354 360-595 limits assumed): as the sequence (P43354 360-595 limits assumed) above

SMILES | EC50 (Nurr1 [1]) [µM] | EC50(Nurr1) (max. activation) (Nurr1 [1]; at 100 µM) | max. activation (Nurr1 [1]) | also measured
Cc1nc2c(Cl)cccn2c1NC(=O)c1ccc(-c2ccc(C(F)(F)F)cc2)o1 [Compound 31] | 1.1 ± 0.3 |  |  | 
Nc1c(-c2ccccc2Cl)nc2c(Cl)cccn12 [Compound 19] |  | inactive (100 µM) |  | 
Nc1c(-c2cccc(Cl)c2)nc2c(Cl)cccn12 [Compound 18] | 9 ± 3 |  | 1.7±0.1 fold | 
Nc1c(-c2ccc(Cl)cc2)nc2c(Cl)cccn12 [Compound 17] | 15 ± 3 |  | 1.7±0.2 fold | 
CNc1ccc(-c2ccc(C(=O)Nc3c(C)nc4c(Cl)cccn34)o2)cc1 [Compound 35] | 0.3 ± 0.02 |  |  | 
Cc1nc2cccc(Cl)c2[nH]1 [Compound 7, 4-Chloro-2-methyl-benzimidazole] |  | failed to activate Nurr1; also recorded: inactive (100 µM) |  | 
Nc1c(-c2ccc(Cl)c(Cl)c2)nc2c(Cl)cccn12 [Compound 24, 8-Chloro-2-(3,4-dichlorophenyl)imidazo[1,2-a]pyridine-3-amine] | 0.4 |  | 1.8 fold and 1.8±0.1 fold | Kd (Nurr1 LBD): 700 nM; increase in potency over 8 (Nurr1 [1]): 7 fold
Nc1c(-c2ccoc2)nc2c(Cl)cccn12 [Compound 16] |  | inactive | < 1.2 fold | 
Cc1nc2c(Cl)cccn2c1NC(=O)c1ccc(-c2ccccc2)o1 [Compound 27] | 4 ± 1 |  | 2.1±0.1 fold | 
Cc1ccc(-c2nc3c(Cl)cccn3c2N)cc1C [Compound 25] | 14 ± 2 |  | 1.6±0.1 fold | 
Cc1nc2c(Cl)cccn2c1NC(=O)c1ccc(-c2ccccc2)cc1 [Compound 30] |  |  |  | EC50(Nurr1) (max. activation) (Nurr1 [1]; at 10 µM): inactive (10 µM)
COc1ccc(-c2ccc(C(=O)Nc3c(C)nc4c(Cl)cccn34)o2)cc1 [Compound 34] | 0.16 ± 0.06 |  | 1.7±0.1 fold | 
Cc1nc2cc(Cl)ccn2c1N [Compound 9] |  | inactive (100 µM) |  | 
Cc1cc(N)c2cccc(Cl)c2n1 [Compound 4, 8-chloro-2-methylquinolin-4-amine] | 17 ± 6 |  | 1.7±0.1 fold | ligand efficiency (LE) (Nurr1 [2]): 0.50; lipophilic ligand efficiency (LLE) (Nurr1 [2]): 1.99; size-independent ligand eff. (SILE) (Nurr1 [2]): 2.21
Cc1nc2ccccn2c1N [Compound 13] |  | inactive (100 µM) |  | 
Clc1cccn2ccnc12 [Compound 11] |  | inactive (100 µM) |  | 
Cc1nc2c(Cl)cccn2c1NC(=O)c1ccc(-c2ccc(OC(F)(F)F)cc2)o1 [Compound 33] | 0.8 ± 0.2 |  |  | 
Cc1nc2c(Cl)cccn2c1NC(=O)c1ccc(-c2ccccc2)s1 [Compound 28] | 3.2 ± 0.4 |  | 2.1±0.1 fold | 
Nc1cnc2c(Cl)cccn12 [Compound 12, 3-Amino-8-chloroimidazo[1,2-a]pyridine] |  | inactive (100 µM) |  | 
Nc1c(-c2cccc(C(F)(F)F)c2)nc2c(Cl)cccn12 [Compound 23] |  |  | < 1.2-fold act. | 
Cc1ccc(-c2nc3c(Cl)cccn3c2N)cc1 [Compound 20] | 12 ± 2 |  | 2.0±0.2 fold | 
Nc1cnc2ccccn12 [Compound 10] |  | inactive (100 µM) |  | 
CC(C)c1nc2c(Cl)cccn2c1N [Compound 14] |  | inactive | < 1.2 fold | 
Nc1c(-c2ccccc2)nc2c(Cl)cccn12 [Compound 15] |  |  | 1.4±0.1 fold | 
Cc1nc2c(Cl)cccn2c1NC(=O)c1ccc(-c2ccc(Cl)cc2)o1 [Compound 26] | 1.6 ± 0.5 |  | 1.8±0.1 fold | Kd (Nurr1 LBD): 700 nM
Nc1c(-c2ccc(C(F)(F)F)cc2)nc2c(Cl)cccn12 [Compound 22] |  |  | < 1.2-fold act. | 
Cc1cccc(-c2nc3c(Cl)cccn3c2N)c1 [Compound 21] |  |  | < 1.2-fold act. | 
Cc1ccc(-c2ccc(C(=O)Nc3c(C)nc4c(Cl)cccn34)o2)cc1 [Compound 32] | 0.13 ± 0.02 |  | 2.0±0.2 fold | 
Cc1nc2c(Cl)cccn2c1N [Compound 8, 8-Chloro-2-methylimidazo[1,2-a]pyridine-3-amine] | 7 ± 1 |  | 2.0±0.1 fold | Kd (Nurr1 LBD): 2700 nM; ligand efficiency (LE) (Nurr1 [2]): 0.59; lipophilic ligand efficiency (LLE) (Nurr1 [2]): 3.28; size-independent ligand eff. (SILE) (Nurr1 [2]): 2.45

From patent EP4596548A1, “NURR1 MODULATORS” (Ludwig-Maximilians-Universität, priority 2024, dated 2025)
